In PubChem BioAssay (NCI):
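These data come from cells grown in 96-well plates and exposed to compound for 48 hours at five concentrations. GI50 = concentration required for 50% inhibition of growth. TGI denotes the concentration required for complete inhibition of growth.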

Tests used:
Experiment in all cases: NCI tumour cell line growth inhibition, 48 h
[1] = system: 786-0 renal
[2] = system: LOX IMVI melanoma
[3] = system: UACC-257 melanoma
[4] = system: HOP-62 NSCLC
[5] = system: A498 renal
[6] = system: NCI-H460 lung
[7] = system: SR leukemia
[8] = system: SK-MEL-28 melanoma
[9] = system: HCT-15 colon
[10] = system: SK-MEL-2 melanoma

Compound | GI50 [1] [µM] | TGI [1] [µM] | GI50 [2] [µM] | TGI [2] [µM] | GI50 [3] [µM] | TGI [3] [µM] | GI50 [4] [µM] | TGI [4] [µM] | GI50 [5] [µM] | TGI [5] [µM] | GI50 [6] [µM] | TGI [6] [µM] | GI50 [7] [µM] | TGI [7] [µM] | GI50 [8] [µM] | TGI [8] [µM] | GI50 [9] [µM] | TGI [9] [µM] | TGI [10] [µM] | GI50 [10] [µM]
C#COc1cccc(Nc2ncnc3cc(NC(=O)[C@H](C)Cl)ccc23)c1 | 3.24 | > 62.5 | 2.54 | > 62.5 | > 62.5 | > 62.5 | 6.35 | > 62.5 | 1.73 | 34.5 | 2.18 | > 62.5 | 2.87 | > 62.5 | 4.71 | > 62.5 | 2.5 | > 62.5 |  | 
CN(C)c1ccc(C(c2ccc(Cl)cc2)c2ccc(N(C)C)cc2)cc1 |  | > 100 |  | > 100 |  | > 100 |  | > 100 |  | > 100 |  | > 100 |  | > 100 |  | > 100 |  | > 100 | > 100 | 
N#Cc1c(N)nc(NCc2ccccc2)c(C#N)c1-c1ccc(Cl)cc1Cl | > 100 | > 100 | > 100 | > 100 | > 100 | > 100 | > 51.9 | > 85.9 | > 100 | > 100 | > 69.4 | > 100 | 2.07 | 21.8 | > 100 | > 100 | > 100 | > 100 | > 100 | > 77.2
COc1ccccc1NS(=O)(=O)c1ccc2oc(SC(C)C)nc2c1 | 26.6 | > 100 | 12.7 | 46.4 | 1.76 | 19.1 | 31.2 | > 100 | 23.3 | 61.7 | 15.7 | > 100 | 3.62 | 24.4 | 37.5 | > 100 | 29.4 | > 100 | 61.5 | 15.6
COc1cc(/C=C/c2cc(/C=C/c3ccc(O)c(OC)c3)n(C(=O)Nc3ccc(Cl)cc3)n2)ccc1O | 0.515 | 1.85 | 0.448 | 2.26 | 1.26 | 6.81 | 0.537 | 1.85 | 1.84 | 5.13 | 0.327 | 1.85 | 0.106 |  | 1.07 | 4.07 | 0.43 | 11.6 | 2.01 | 0.403
O=C1C2C3C=C4c5ccccc5N(c5ccccc5)C4(C2C(=O)N1c1ccc(Br)cc1)[C@H]1C(=O)N(c2ccc(Br)cc2)C(=O)[C@@H]31 (stereo partly drawn) |  | > 100 |  | > 100 |  | > 100 |  | > 100 |  | > 100 |  | > 100 |  | > 100 |  |  |  | > 100 | > 100 | 
CC1=C[C@H]2C[C@H](C)[C@H]3CC[C@H](C)[C@]4(C1)C(=O)C(O)=C(C)C(=O)[C@@]324 | 30.1 | > 100 | 22.1 | 51.1 | 59.2 | > 100 | 28.7 | 83.6 |  |  | 42.9 | > 100 | 27.4 | 82.6 | 26 | > 100 | 32.7 | > 100 | > 100 | 32.3
COc1cccc(/C(C)=N/NC(=O)CSc2nc3ccccc3c(=O)n2CCc2ccc(S(N)(=O)=O)cc2)c1 | 1.47 | 3.95 | 3.1 | 11.7 | 10.9 | 36.7 | 2.81 | 9.63 | 8.02 | 24.8 |  |  | 0.481 | > 100 | 10.8 | 38.7 | 18.4 | > 100 | 16.3 | 3.42
COc1cc(C2C3=C(COC3=O)N(CCO)c3cc4c(cc32)OCO4)cc(OC)c1O (stereo not drawn) | 2.02 | > 50 | 2.5 | > 50 |  |  | 2.35 | > 50 | 1.16 | 3.92 | 1.69 | > 15.9 | 0.611 | > 11.9 | > 50 | > 50 | 8.01 | > 50 |  | 
Cn1c(=O)c2[nH]cnc2n(CC(N)=O)c1=O |  | > 100 |  |  |  |  |  | > 100 |  | > 100 |  | > 100 |  | > 100 |  | > 100 |  | > 100 | > 100 | 
O=C1c2ccccc2C(=O)c2c(NCC3CO3)ccc(NCC3CO3)c21 (stereo not drawn) |  | 5.57 |  | 0.0161 |  | 23.9 |  | 6.96 |  | > 83.9 |  | > 53.9 |  | > 27.2 |  | 28.1 |  | > 22.5 |  | 
Cc1ccc(C)c(NC(=O)CC2SC(=Nc3ccccc3Cl)NC2=O)c1 (stereo not drawn) |  | > 100 |  |  |  | > 100 |  | > 100 |  | > 100 |  | > 100 |  | 55.4 |  | > 100 |  | > 100 | > 100 | 
NNC(=O)c1ccc(OCc2nc3ccccc3[nH]2)cc1 |  | > 100 |  | > 100 |  | > 100 |  |  |  | > 100 |  | > 100 |  | > 100 |  | > 100 |  | > 100 | > 100 | 
CCN1C[C@]2(COC)[C@H](O)C[C@H](OC)[C@]34C1[C@H]([C@H](OC)[C@H]23)[C@]1(OC(C)=O)[C@H]2[C@@H](OC(=O)c3ccccc3)[C@](O)(C[C@H]24)[C@@H](OC)[C@@H]1O |  | > 100 |  | > 100 |  | > 100 |  |  |  | > 100 |  | > 100 |  | > 100 |  | > 100 |  | > 100 | > 100 | 
COC1C2c3cc4c(cc3CC(C#N)(c3ccccc32)N1C(=O)c1ccccc1)OCO4 (stereo not drawn) |  | > 100 |  | > 100 |  | > 100 |  | > 100 |  |  |  | > 100 |  | > 100 |  | > 100 |  | > 100 | > 100 | 
O=C(CCc1nnc2s/c(=C\c3ccccc3Cl)c(=O)n12)Nc1cc(Cl)ccc1Cl |  | > 100 |  | > 100 |  | > 100 |  | > 100 |  |  |  | > 100 |  | > 100 |  | > 100 |  | > 100 | > 100 | 
COc1ccc(C(CC(=O)c2ccccc2)C(C(=O)c2ccccc2)C(c2ccc(OC)cc2)C2C(=O)NC(=S)NC2=O)cc1 (stereo not drawn) | 21.7 | > 100 | 8.18 | 20.6 | 13.8 | 52.7 | 21.1 | > 100 | 3.19 | 23.2 | 5.88 | 50.7 |  |  | 16 | > 100 | 12.9 | 37.2 | 49 | 13.8
